# US20250136597A1, “COMPOUNDS AND COMPOSITIONS FOR TREATING CONDITIONS ASSOCIATED WITH STING ACTIVITY” (IFM Due, Inc., priority 2020, published 2025)
# pEC50: −log10 of the molar value.
# Target: T1, hSTING (Homo sapiens, UniProt Q86WV6, G230A/H232R/R293Q/R71H)
# T1 construct: host or cells: THP1-Dual KO-IFNAR2 cells
# Assay: STING reporter assay in THP1-Dual KO-IFNAR2 cells (2′3′cGAMP stimulation, luciferase reporter)
# Assay type: cell-based
# Settings: final 2′3′cGAMP 15 μM, 24 h, luciferase reporter activity
# Description: STING pathway activation by the compounds described herein was measured using THP1-Dual™ cells (KO-IFNAR2).
# THP1-Dual™ KO-IFNAR2 Cells (obtained from invivogen) were maintained in RPMI, 10% FCS, 5 ml P/S, 2 mM L-glut, 10 mM Hepes, and 1 mM sodium pyruvate. Compounds were spotted in empty 384 well tissue culture plates (Greiner 781182) by Echo for a final concentration of 0.0017-100 μM. Cells were plated into the TC plates at 40 μL per well, 2×10E6 cells/mL. For activation with STING ligand, 2′3′cGAMP (MW 718.38, obtained from Invivogen), was prepared in Optimem media.
# The following solutions were prepared for each 1×384 plate: • Solution A: 2 mL Optimem with one of the following stimuli: • 60 μL of 10 mM 2′3′cGAMP→150 μM stock • Solution B: 2 mL Optimem with 60 μL Lipofectamine 2000→Incubate 5 min at RT
# 2 mL of solution A and 2 ml Solution B was mixed and incubated for 20 min at room temperature (RT). 20 μL of transfection solution (A+B) was added on top of the plated cells, with a final 2′3′cGAMP concentration of 15 μM. The plates were then centrifuged immediately at 340 g for 1 minute, after which they were incubated at 37° C., 5% CO2, >98% humidity for 24 h. Luciferase reporter activity was then measured. EC50 values were calculated by using standard methods known in the art.
# Luciferase reporter assay: 10 μL of supernatant from the assay was transferred to white 384-plate with flat bottom and squared wells. One pouch of QUANTI-Luc™ Plus was dissolved in 25 mL of water. 100 μL of QLC Stabilizer per 25 mL of QUANTI-Luc™ Plus solution was added. 50 μL of QUANTI-Luc™ Plus/QLC solution per well was then added. Luminescence was measured on a Platereader (e.g., Spectramax I3X (Molecular Devices GF3637001)).
# Luciferase reporter activity was then measured. EC50 values were calculated by using standard methods known in the art.
# T1 sequence (Q86WV6 whole entry R71H/G230A/H232R/R293Q): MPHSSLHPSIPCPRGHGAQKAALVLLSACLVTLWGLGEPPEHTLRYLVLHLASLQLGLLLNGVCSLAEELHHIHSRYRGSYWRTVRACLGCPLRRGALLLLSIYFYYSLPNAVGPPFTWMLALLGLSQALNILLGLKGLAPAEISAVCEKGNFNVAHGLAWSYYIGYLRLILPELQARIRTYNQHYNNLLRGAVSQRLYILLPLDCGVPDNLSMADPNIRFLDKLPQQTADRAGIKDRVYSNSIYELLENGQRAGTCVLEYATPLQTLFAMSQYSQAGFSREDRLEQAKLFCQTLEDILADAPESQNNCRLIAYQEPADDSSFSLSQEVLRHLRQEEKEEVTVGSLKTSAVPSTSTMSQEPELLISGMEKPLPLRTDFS
row,Compound,pEC50
1,"CCc1ccc(-n2cc(-c3ccc4[nH]cc(NS(=O)(=O)CC5CCCO5)c4c3)cn2)cc1 (stereo not shown) [Compound 101, N-(5-(1-(4-ethylphenyl)-1H-pyrazol-4-yl)-1H-indol-3-yl)-1-(tetrahydrofuran-2-yl)methanesulfonamide]",6.00 to 6.70
2,"CCc1ccc(-n2cc(-c3ccc4[nH]cc(NS(=O)(=O)CC)c4c3)cn2)cc1 [Compound 104, N-(5-(1-(4-ethylphenyl)-1H-pyrazol-4-yl)-1H-indol-3-yl)ethanesulfonamide]",5.30 to 6.00
3,"CCc1ccc(-n2cc(-c3ccc4[nH]cc(NS(=O)(=O)CC5CC5)c4c3)cn2)cc1 [Compound 102, 1-cyclopropyl-N-(5-(1-(4-ethylphenyl)-1H-pyrazol-4-yl)-1H-indol-3-yl)methanesulfonamide]",6.00 to 6.70
4,"CCc1ccc(-n2cc(-c3ccc4[nH]cc(NS(=O)(=O)C5CCC5)c4c3)cn2)cc1 [Compound 103, N-(5-(1-(4-ethylphenyl)-1H-pyrazol-4-yl)-1H-indol-3 yl)cyclobutanesulfonamide]",6.00 to 6.70
